Legend:
Type in all cases: in vivo
[1] = system: Rice Green Leafhopper (Nephotettix virescens); assay: Rice green leafhopper (Nephotettix virescens), sprayed potted rice seedlings; settings: adults, after 72 hours, read-out: mortality in comparison with untreated controls
Protocol: B.8 Rice Green Leafhopper (Nephotettix virescens)
Rice seedlings were cleaned and washed 24 hours before spraying. The active compounds were formulated in 1:1 acetone:water (vol:vol), and 0.01% vol/vol surfactant (Kinetic HV) was added. Potted rice seedlings were sprayed with 5-6 ml test solution, air dried, covered with Mylar cages and inoculated with 10 adults. Treated rice plants were kept at about 28-29° C. and relative humidity of about 50-60%. Percent mortality was recorded after 72 hours.

[2] = system: Orchid Thrips (Dichromothrips Corbetti); assay: Orchid thrips (Dichromothrips corbetti), floral-immersion technique; settings: adult thrips, 72 hours after treatment, read-out: mortality in comparison with untreated controls
Protocol: B.7 Orchid Thrips (Dichromothrips Corbetti)
Dichromothrips corbetti adults used for bioassay were obtained from a colony maintained continuously under laboratory conditions. For testing purposes, the test compound was diluted in a 1:1 mixture of acetone:water (vol:vol), plus Kinetic HV at a rate of 0.01% v/v.
Thrips potency of each compound was evaluated by using a floral-immersion technique. All petals of individual, intact orchid flowers were dipped into treatment solution and allowed to dry in Petri dishes. Treated petals were placed into individual re-sealable plastic along with about 20 adult thrips. All test arenas were held under continuous light and a temperature of about 28° C. for duration of the assay. After 3 days, the numbers of live thrips were counted on each petal. The percent mortality was recorded 72 hours after treatment.

[3] = system: Diamond Back Moth (Plutella Xylostella); assay: Diamond back moth (Plutella xylostella), cabbage leaf dip, 3rd instar larvae; settings: foliar, 72 hours after treatment, read-out: mortality in comparison with untreated controls
Protocol: B.6 Diamond Back Moth (Plutella Xylostella)
The active compound was dissolved at the desired concentration in a mixture of 1:1 (vol:vol) distilled water:aceteone. Surfactant (Kinetic HV) was added at a rate of 0.01% (vol/vol). The test solution was prepared at the day of use.
Leaves of cabbage were dipped in test solution and air-dried. Treated leaves were placed in petri dishes lined with moist filter paper and inoculated with ten 3rd instar larvae. Mortality was recorded 72 hours after treatment. Feeding damages were also recorded using a scale of 0-100%.

[4] = system: green peach aphid (Myzus persicae); assay: Green peach aphid (Myzus persicae), systemic, 96-well plates with liquid artificial diet under membrane; settings: 72 h, adult aphids on treated diet, 3 days, read-out: mortality in comparison with untreated controls
Excerpt: B.1 Green Peach Aphid (Myzus persicae)
For evaluating control of green peach aphid (Myzus persicae) through systemic means the test unit consisted of 96-well-microtiter plates containing liquid artificial diet under an artificial membrane.
The compounds were formulated using a solution containing 75% v/v water and 25% v/v DMSO. Different concentrations of formulated compounds were pipetted into the aphid diet, using a custom built pipetter, at two replications.
After application, 5-8 adult aphids were placed on the artificial membrane inside the microtiter plate wells. The aphids were then allowed to suck on the treated aphid diet and incubated at about 23±1° C. and about 50±5% relative humidity for 3 days. Aphid mortality and fecundity was then visually assessed.

[5] = system: Mediterranean fruitfly (Ceratitis capitata); assay: Mediterranean fruitfly (Ceratitis capitata), insect diet with eggs in microtiter plates; settings: 120 h, egg and larval mortality, 5 days, read-out: mortality in comparison with untreated controls
Protocol: B.5 Mediterranean Fruitfly (Ceratitis capitata)
For evaluating control of Mediterranean fruitfly (Ceratitis capitata) the test unit consisted of microtiter plates containing an insect diet and 50-80 C. capitata eggs.
The compounds were formulated using a solution containing 75% v/v water and 25% v/v DMSO. Different concentrations of formulated compounds were sprayed onto the insect diet at 5 μl, using a custom built micro atomizer, at two replications.
(§1) After application, microtiter plates were incubated at about 28±1° C. and about 80±5% relative humidity for 5 days. Egg and larval mortality was then visually assessed.

[6] = system: Red Spider Mite (Tetranychus kanzawai); assay: Red spider mite (Tetranychus kanzawai), sprayed potted cowpea beans; settings: 72 hours after treatment, read-out: mortality in comparison with untreated controls
Protocol: B.9 Red Spider Mite (Tetranychus kanzawai)
The active compound was dissolved at the desired concentration in a mixture of 1:1 (vol:vol) distilled water:acetone. Surfactant (Kinetic HV) was added at a rate of 0.01% (vol/vol). The test solution was prepared at the day of use.
Potted cowpea beans of 4-5 days of age were cleaned with tap water and sprayed with 1-2 ml of the test solution using air driven hand atomizer. The treated plants were allowed to air dry and afterwards inoculated with 30 or more mites by clipping a cassava leaf section from rearing population. Treated plants were placed inside a holding room at about 25-27° C. and about 50-60% relative humidity. Percent mortality was assessed 72 hours after treatment.

[7] = system: boll weevil (Anthonomus grandis); assay: Boll weevil (Anthonomus grandis), insect diet with eggs in 24-well plates; settings: 120 h, egg and larval mortality, 5 days, read-out: mortality in comparison with untreated controls
Protocol: B.4 Boll Weevil (Anthonomus grandis)
For evaluating control of boll weevil (Anthonomus grandis) the test unit consisted of 24-well-microtiter plates containing an insect diet and 20-30 A. grandis eggs.
The compounds were formulated using a solution containing 75% v/v water and 25% v/v DMSO. Different concentrations of formulated compounds were sprayed onto the insect diet at 20 μl, using a custom built micro atomizer, at two replications.
After application, microtiter plates were incubated at about 23±1° C. and about 50±5% relative humidity for 5 days. Egg and larval mortality was then visually assessed.

[8] = system: vetch aphid (Megoura viciae); assay: Vetch aphid (Megoura viciae), contact or systemic, broad bean leaf disks in 24-well plates; settings: foliar, 120 h, adult aphids on sprayed leaf disks, 5 days, read-out: mortality in comparison with untreated controls
Protocol: B.2 Vetch Aphid (Megoura viciae)
For evaluating control of vetch aphid (Megoura viciae) through contact or systemic means the test unit consisted of 24-well-microtiter plates containing broad bean leaf disks.
The compounds were formulated using a solution containing 75% v/v water and 25% v/v DMSO. Different concentrations of formulated compounds were sprayed onto the leaf disks at 2.5 μl, using a custom built micro atomizer, at two replications.
After application, the leaf disks were air-dried and 5-8 adult aphids placed on the leaf disks inside the microtiter plate wells. The aphids were then allowed to suck on the treated leaf disks and incubated at about 23±1° C. and about 50±5% relative humidity for 5 days. Aphid mortality and fecundity was then visually assessed.

[9] = system: tobacco budworm (Heliothis virescens); assay: Tobacco budworm (Heliothis virescens), insect diet with eggs in 96-well plates; settings: 120 h, egg and larval mortality, 5 days, read-out: mortality in comparison with untreated controls
Protocol: B.3 Tobacco Budworm (Heliothis virescens)
For evaluating control of tobacco budworm (Heliothis virescens) the test unit consisted of 96-well-microtiter plates containing an insect diet and 15-25 H. virescens eggs.
The compounds were formulated using a solution containing 75% v/v water and 25% v/v DMSO. Different concentrations of formulated compounds were sprayed onto the insect diet at 10 μl, using a custom built micro atomizer, at two replications.
as §1

O=C(NC1CS(=O)(=O)C1)c1ccc(C2=CC(c3cc(Cl)cc(Cl)c3)(C(F)(F)F)CC2)cc1Cl (stereo not shown) [Compound 1-11, 2-Chloro-4-[3-(3,5-dichlorophenyl)-3-(trifluoromethyl)cyclopenten-1-yl]-N-(1,1-dioxothietan-3-yl)benzamide]
≥ 75%: mortality at 500 ppm [1] | mortality at 500 ppm [2] | mortality at 500 ppm [3] | mortality at 2500 ppm [4] | mortality at 2500 ppm [5] | mortality at 500 ppm [6] | mortality at 2500 ppm [7] | mortality at 2500 ppm [8] | mortality at 2500 ppm [9]

O=C(O)c1ccc(C2=CC(c3cc(Cl)cc(Cl)c3)(C(F)(F)F)CC2)cc1Cl (stereo not shown) [Compound 1-12, 2-Chloro-4-[3-(3,5-dichlorophenyl)-3-(trifluoromethyl)cyclopenten-1-yl]benzoic acid]
≥ 75%: mortality at 2500 ppm [7]

COC(=O)c1ccc(C2=CC(c3cc(Cl)cc(Cl)c3)(C(F)(F)F)CC2)cc1Cl (stereo not shown) [Compound 1-13, Methyl 2-chloro-4-[3-(3,5-dichlorophenyl)-3-(trifluoromethyl)cyclopenten-1-yl]-benzoate]
≥ 75%: mortality at 500 ppm [3] | mortality at 2500 ppm [7]

O=C(NC1CS(=O)(=O)C1)c1ccc(C2=CC(c3cc(Cl)cc(Cl)c3)(C(F)(F)F)C=C2)cc1Cl (stereo not shown) [Compound 2-12, 2-Chloro-4-[3-(3,5-dichlorophenyl)-3-(trifluoromethyl)cyclopenta-1,4-dien-1-yl]-N-(1,1-dioxothietan-3-yl)benzamide]
≥ 75%: mortality at 500 ppm [1] | mortality at 500 ppm [2] | mortality at 500 ppm [3] | mortality at 2500 ppm [4] | mortality at 2500 ppm [5] | mortality at 500 ppm [6] | mortality at 2500 ppm [7] | mortality at 2500 ppm [8] | mortality at 2500 ppm [9]

O=C(NC1CS(=O)(=O)C1)c1ccc(C2=CCC(c3cc(Cl)cc(Cl)c3)(C(F)(F)F)C2)cc1Cl (stereo not shown) [Compound 3-9, 2-Chloro-4-[4-(3,5-dichlorophenyl)-4-(trifluoromethyl)cyclopenten-1-yl]-N-(1,1-dioxothietan-3-yl)benzamide]
≥ 75%: mortality at 500 ppm [1] | mortality at 500 ppm [2] | mortality at 500 ppm [3] | mortality at 2500 ppm [4] | mortality at 2500 ppm [5] | mortality at 500 ppm [6] | mortality at 2500 ppm [7] | mortality at 2500 ppm [8] | mortality at 2500 ppm [9]

O=C(O)c1ccc(C2=CCC(c3cc(Cl)cc(Cl)c3)(C(F)(F)F)C2)cc1Cl (stereo not shown) [Compound 3-11, 2-Chloro-4-[4-(3,5-dichlorophenyl)-4-(trifluoromethyl)cyclopenten-1-yl]benzoic acid]
≥ 75%: mortality at 2500 ppm [7]

— patent US10407383B2, “Cyclopentene and cyclopentadiene compounds for controlling invertebrate pests” (BASF SE, priority 2014, dated 2019)
